Data on 27 compounds can be found in US7642270B2, “5-oxo-5,8-dihydro-pyrido-pyrimidine as inhibitors of c-fms kinase” (Janssen Pharmaceutica N.V., priority 2005, dated 2010).

Some results are limits rather than exact numbers.

The target in the assay is c-fms (Homo sapiens, UniProt P07333). Briefly: c-fms autophosphorylation, fluorescence polarization competition immunoassay. It counts as biochemical. Conditions: 10 nM c-fms, 1 mM ATP, 5 mM MgCl2, 45 min room temperature; averages of three independent measurements; read-out: c-fms Autophosphorylation IC50. The procedure: Autophosphorylation, Fluorescence Polarization Competition Immunoassay
Sequence of c-fms (P07333 20-972): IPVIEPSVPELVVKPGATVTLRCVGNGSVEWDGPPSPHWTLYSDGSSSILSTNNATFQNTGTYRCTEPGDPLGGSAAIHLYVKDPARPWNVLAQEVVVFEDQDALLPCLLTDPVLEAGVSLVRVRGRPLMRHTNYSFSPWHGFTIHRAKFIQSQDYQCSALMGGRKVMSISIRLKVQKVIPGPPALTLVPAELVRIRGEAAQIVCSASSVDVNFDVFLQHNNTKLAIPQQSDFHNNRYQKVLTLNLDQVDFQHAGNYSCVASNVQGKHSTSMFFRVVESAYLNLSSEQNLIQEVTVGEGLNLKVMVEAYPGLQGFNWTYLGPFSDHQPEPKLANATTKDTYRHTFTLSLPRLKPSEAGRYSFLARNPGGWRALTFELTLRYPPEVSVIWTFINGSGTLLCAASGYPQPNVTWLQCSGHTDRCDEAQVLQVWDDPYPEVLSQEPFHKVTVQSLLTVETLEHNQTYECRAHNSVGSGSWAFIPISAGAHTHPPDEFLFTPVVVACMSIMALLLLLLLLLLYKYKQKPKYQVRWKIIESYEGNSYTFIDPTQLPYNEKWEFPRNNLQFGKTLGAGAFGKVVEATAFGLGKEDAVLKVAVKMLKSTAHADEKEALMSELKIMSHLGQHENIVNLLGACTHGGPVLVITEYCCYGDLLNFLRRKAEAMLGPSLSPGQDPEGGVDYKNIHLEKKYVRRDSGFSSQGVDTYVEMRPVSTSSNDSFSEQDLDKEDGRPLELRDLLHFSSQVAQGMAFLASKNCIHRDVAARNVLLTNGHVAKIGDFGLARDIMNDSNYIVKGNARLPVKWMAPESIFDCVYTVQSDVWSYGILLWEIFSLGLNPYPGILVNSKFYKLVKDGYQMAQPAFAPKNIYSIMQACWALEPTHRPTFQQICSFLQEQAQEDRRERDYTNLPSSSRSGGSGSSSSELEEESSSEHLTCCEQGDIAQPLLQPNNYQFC
The assay buffer used was 100 mM 4-(2-hydroxyethyl)piperazine 1-ethanesulfonic acid (HEPES), pH 7.5, 1 mM 1,4-dithio-DL-threitol (DTT), 0.01% (v/v) Tween-20. Compounds were diluted in assay buffer containing 4% dimethylsulfoxide (DMSO) just prior to the assay. […] The kinase reaction was initiated by adding 2 μL of 5 mM ATP (Sigma) in assay buffer. The final concentrations in the assay were 10 nM c-fms, 1 mM ATP, 5 mM MgCl2, 2% DMSO. Control reactions were ran in each plate: in positive and negative control wells, assay buffer (made 4% in DMSO) was substituted for the compound; in addition, positive control wells received 1.2 μL of 50 mM ethylenediaminetetraaceticacid (EDTA).
The plates were incubated at room temperature for 45 min. At the end of the incubation, the reaction was quenched with 1.2 μL of 50 mM EDTA (EDTA was not added to the positive control wells at this point; see above). Following a 5-min incubation, each well received 10 μL of a 1:1:3 mixture of anti-phosphotyrosine antibody, 10×, PTK green tracer, 10× (vortexed), FP dilution buffer, respectively (all from PanVera, cat. # P2837). The plate was covered, incubated for 30 min at room temperature and the fluorescence polarization was read on the Analyst.
The IC50 values shown in Table 1 are averages of three independent measurements.
Background: Fluorescence polarisation rises when a labelled molecule tumbles more slowly, as on binding a larger partner.
In general, IC50 refers to the concentration needed to halve the response being measured. Regarding `CCOC(=O)c1cn(-c2ccc3c(c2)CCC3)c2nc(Nc3ccc(N4CCN(C)CC4)cc3)ncc2c1=O` [Cpd 1, 8-Indan-5-yl-2-[4-(4-methyl-piperazin-1-yl)-phenylamino]-5-oxo-5,8-dihydro-pyrido[2,3-d]pyrimidine-6-carboxylic acid ethyl ester], the IC50 turned out to be 280 nM.

For the compound `CCOC(=O)c1cn(-c2ccc3c(c2)CCC3)c2nc(Nc3ccc(OCC(O)CN(C)C)cc3)ncc2c1=O` (stereo not drawn) [Cpd 2, 2-[4-(3-Dimethylamino-2-hydroxy-propoxy)-phenylamino]-8-indan-5-yl-5-oxo-5,8-dihydro-pyrido[2,3-d]pyrimidine-6-carboxylic acid ethyl ester], the IC50 stood at 440 nM. Then `CCOC(=O)c1cn(-c2ccc3c(c2)CCC3)c2nc(Nc3ccc(N4CCOCC4)cc3)ncc2c1=O` [Cpd 3, 8-Indan-5-yl-2-(4-morpholin-4-yl-phenylamino)-5-oxo-5,8-dihydro-pyrido[2,3-d]pyrimidine-6-carboxylic acid ethyl ester], with 2900 nM; and `CCOC(=O)c1cn(-c2ccc3c(c2)CCC3)c2nc(Nc3ccc(N(C)C)cc3)ncc2c1=O` [Cpd 4, 2-(4-Dimethylamino-phenylamino)-8-indan-5-yl-5-oxo-5,8-dihydro-pyrido[2,3-d]pyrimidine-6-carboxylic acid ethyl ester], with above 10000 nM. To `CCOC(=O)c1cn(-c2ccc3c(c2)CCC3)c2nc(Nc3cccc(N(C)C)c3)ncc2c1=O` [Cpd 5, 2-(3-Dimethylamino-phenylamino)-8-indan-5-yl-5-oxo-5,8-dihydro-pyrido[2,3-d]pyrimidine-6-carboxylic acid ethyl ester] belongs 590 nM.

Turning to `CN1CCN(c2ccc(Nc3ncc4c(=O)c(C(=O)O)cn(-c5ccc6c(c5)CCC6)c4n3)cc2)CC1` [Cpd 6, 8-Indan-5-yl-2-[4-(4-methyl-piperazin-1-yl)-phenylamino]-5-oxo-5,8-dihydro-pyrido[2,3-d]pyrimidine-6-carboxylic acid], the IC50 turned out to be 1100 nM. For `CNC(=O)c1cn(-c2ccc3c(c2)CCC3)c2nc(Nc3ccc(N4CCN(C)CC4)cc3)ncc2c1=O` [Cpd 8, 8-indan-5-yl-2-[4-(4-methyl-piperazin-1-yl)-phenylamino]-5-oxo-5,8-dihydro-pyrido[2,3-d]pyrimidine-6-carboxylic acid methylamide], the IC50 turned out to be 31 nM. Consider `CCNC(=O)c1cn(-c2ccc3c(c2)CCC3)c2nc(Nc3ccc(N4CCN(C)CC4)cc3)ncc2c1=O` [Cpd 9, 8-indan-5-yl-2-[4-(4-methyl-piperazin-1-yl)-phenylamino]-5-oxo-5,8-dihydro-pyrido[2,3-d]pyrimidine-6-carboxylic acid ethylamide], for which the IC50 was 68 nM.

Consider `CCNC(=O)c1cn(-c2ccc3c(c2)CCC3)c2nc(Nc3ccc(OCC(O)CN(C)C)cc3)ncc2c1=O` (stereo not drawn) [Cpd 12, 2-[4-(3-Dimethylamino-2-hydroxy-propoxy)-phenylamino]-8-indan-5-yl-5-oxo-5,8-dihydro-pyrido[2,3-d]pyrimidine-6-carboxylic acid ethylamide], for which the IC50 is 77 nM. Turning to `CN1CCN(c2ccc(Nc3ncc4c(=O)c(C(N)=O)cn(-c5ccccc5)c4n3)cc2)CC1` [Cpd 13, 2-[4-(4-Methyl-piperazin-1-yl)-phenylamino]-5-oxo-8-phenyl-5,8-dihydro-pyrido[2,3-d]pyrimidine-6-carboxylic acid amide], the IC50 is 730 nM.

Turning to `NC(=O)c1cn(-c2ccc3c(c2)CCC3)c2nc(Nc3ccc(N4CCOCC4)cc3)ncc2c1=O` [Cpd 14, 8-indan-5-yl-2-(4-morpholin-4-yl-phenylamino)-5-oxo-5,8-dihydro-pyrido[2,3-d]pyrimidine-6-carboxylic acid amide], the IC50 is 19 nM.

`CN(C)c1ccc(Nc2ncc3c(=O)c(C(N)=O)cn(-c4ccc5c(c4)CCC5)c3n2)cc1` [Cpd 15, 2-(4-Dimethylamino-phenylamino)-8-indan-5-yl-5-oxo-5,8-dihydro-pyrido[2,3-d]pyrimidine-6-carboxylic acid amide]: the IC50 was determined as 70 nM. On to `CCOC(=O)c1cn(C2CCCCC2)c2nc(Nc3ccc(N4CCN(C)CC4)cc3)ncc2c1=O` [Cpd 17, 8-Cyclohexyl-2-[4-(4-methyl-piperazin-1-yl)-phenylamino]-5-oxo-5,8-dihydro-pyrido[2,3-d]pyrimidine-6-carboxylic acid ethyl ester], for which the IC50 amounted to 1700 nM. Then `CN1CCN(c2ccc(Nc3ncc4c(=O)c(C(N)=O)cn(C5CCCC5)c4n3)cc2)CC1` [Cpd 19, 8-Cyclopentyl-2-[4-(4-methyl-piperazin-1-yl)-phenylamino]-5-oxo-5,8-dihydro-pyrido[2,3-d]pyrimidine-6-carboxylic acid amide], with 56 nM; and `NC(=O)c1cn(-c2ccc3c(c2)CCC3)c2nc(Nc3cccc(CN4CCOCC4)c3)ncc2c1=O` [Cpd 24, 8-Indan-5-yl-2-(3-morpholin-4-ylmethyl-phenylamino)-5-oxo-5,8-dihydro-pyrido[2,3-d]pyrimidine-6-carboxylic acid amide], with 18 nM. Then `CN1CCN(c2ccc(Nc3ncc4c(=O)c(C(N)=O)cn(-c5ccc6c(c5)CCC6)c4n3)c(O)c2)CC1` [Cpd 25, 2-[2-Hydroxy-4-(4-methyl-piperazin-1-yl)-phenylamino]-8-indan-5-yl-5-oxo-5,8-dihydro-pyrido[2,3-d]pyrimidine-6-carboxylic acid amide], with 93 nM; and `CN1CCN(c2ccc(Nc3cc4c(cn3)c(=O)c(C(N)=O)cn4-c3ccc4c(c3)CCC4)cc2)CC1` [Cpd 26, 1-Indan-5-yl-7-[4-(4-methyl-piperazin-1-yl)-phenylamino]-4-oxo-1,4-dihydro-[1,6]naphthyridine-3-carboxylic acid amide], with 56 nM.

Consider `NC(=O)c1cn(-c2ccc3c(c2)CCC3)c2nc(Nc3ccc(CCN4CCOCC4)cc3)ncc2c1=O` [Cpd 27, 8-Indan-5-yl-2-[4-(2-morpholin-4-yl-ethyl)-phenylamino]-5-oxo-5,8-dihydro-pyrido[2,3-d]pyrimidine-6-carboxylic acid amide], for which the IC50 came out at 10 nM. Then `CCNC(=O)c1cn(-c2ccc3c(c2)CCC3)c2nc(Nc3ccc(CCN4CCOCC4)cc3)ncc2c1=O` [Cpd 29, 8-Indan-5-yl-2-[4-(2-morpholin-4-yl-ethyl)-phenylamino]-5-oxo-5,8-dihydro-pyrido[2,3-d]pyrimidine-6-carboxylic acid ethyl amide], with 33 nM; and `NC(=O)c1cn(-c2ccc3c(c2)CCC3)c2nc(Nc3ccc(C[C@H]4COC(=O)N4)cc3)ncc2c1=O` [Cpd 30, (4S)-8-Indan-5-yl-5-oxo-2-[4-(2-oxo-oxazolidin-4-ylmethyl)-phenylamino]-5,8-dihydro-pyrido[2,3-d]pyrimidine-6-carboxylic acid amide], with 12 nM; and `CNC(=O)c1cn(-c2ccc3c(c2)CCC3)c2nc(Nc3ccc(C[C@H]4COC(=O)N4)cc3)ncc2c1=O` [Cpd 31, (4S)-8-Indan-5-yl-5-oxo-2-[4-(2-oxo-oxazolidin-4-ylmethyl)-phenylamino]-5,8-dihydro-pyrido[2,3-d]pyrimidine-6-carboxylic acid methyl amide], with 20 nM. On to `CCNC(=O)c1cn(-c2ccc3c(c2)CCC3)c2nc(Nc3ccc(C[C@H]4COC(=O)N4)cc3)ncc2c1=O` [Cpd 32, (4S)-8-Indan-5-yl-5-oxo-2-[4-(2-oxo-oxazolidin-4-ylmethyl)-phenylamino]-5,8-dihydro-pyrido[2,3-d]pyrimidine-6-carboxylic acid ethyl amide], for which the IC50 stood at 33 nM. Regarding `CNC(=O)c1cn(-c2ccc3c(c2)CCC3)c2nc(Nc3ccc(CCS(=O)(=O)NC(C)C)cc3)ncc2c1=O` [Cpd 33, 8-Indan-5-yl-2-[4-(2-isopropylsulfamoyl-ethyl)-phenylamino]-5-oxo-5,8-dihydro-pyrido[2,3-d]pyrimidine-6-carboxylic acid methyl amide], the IC50 was determined as 100 nM. Then `CCNC(=O)c1cn(-c2ccc3c(c2)CCC3)c2nc(Nc3ccc(CCS(=O)(=O)NC(C)C)cc3)ncc2c1=O` [Cpd 34, 8-Indan-5-yl-2-[4-(2-isopropylsulfamoyl-ethyl)-phenylamino]-5-oxo-5,8-dihydro-pyrido[2,3-d]pyrimidine-6-carboxylic acid ethyl amide], with above 1000 nM. In the case of `CNC(=O)c1cn(-c2ccc3c(c2)CCC3)c2nc(Nc3ccc(CCS(=O)(=O)N4CCOCC4)cc3)ncc2c1=O` [Cpd 35, 8-Indan-5-yl-2-{4-[2-(morpholine-4-sulfonyl)-ethyl]-phenylamino}-5-oxo-5,8-dihydro-pyrido[2,3-d]pyrimidine-6-carboxylic acid methyl amide], the IC50 turned out to be 80 nM. To `CN1CCN(c2cccc(Nc3ncc4c(=O)c(C(N)=O)cn(-c5ccc6c(c5)CCC6)c4n3)c2)CC1` [Cpd 37, 8-Indan-5-yl-2-[3-(4-methyl-piperazin-1-yl)-phenylamino]-5-oxo-5,8-dihydro-pyrido[2,3-d]pyrimidine-6-carboxylic acid amide] belongs 8 nM. To `CNC(=O)c1cn(-c2ccc3c(c2)CCC3)c2nc(Nc3cccc(N4CCN(C)CC4)c3)ncc2c1=O` [Cpd 38, 8-indan-5-yl-2-[3-(4-methyl-piperazin-1-yl)-phenylamino]-5-oxo-5,8-dihydro-pyrido[2,3-d]pyrimidine-6-carboxylic acid methyl amide] belongs 9 nM.
